# In ChEMBL document CHEMBL1201862, “PubChem BioAssay data set” (2004):
#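 48-hour exposure; five concentrations; linearly interpolated endpoints. GI50 = concentration required for 50% inhibition of growth.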 Activity calls are given as the source filed them. Cut-off read from the data, not from the text of the source: active = GI50 up to about 1.1 µM and inactive = higher.
# What was measured:
# Experiment in all cases: inhibition of tumour cell growth, NCI panel, 48 h
# BT-549 = test system: BT-549
# K562 = test system: K562
# OVCAR-3 = test system: OVCAR-3
# MOLT-4 = test system: MOLT-4
# A549 = test system: A549
# SW-620 = test system: SW-620
# MCF7 = test system: MCF7
# UACC-257 = test system: UACC-257
# HCC 2998 = test system: HCC 2998
# NCI-H522 = test system: NCI-H522
# HCT-15 = test system: HCT-15
# OVCAR-8 = test system: OVCAR-8
# NCI-H460 = test system: NCI-H460
# DU-145 = test system: DU-145
# COLO 205 = test system: COLO 205
# OVCAR-4 = test system: OVCAR-4
# SF-539 = test system: SF-539
# RPMI-8226 = test system: RPMI-8226
# SK-MEL-2 = test system: SK-MEL-2
# NCI-H23 = test system: NCI-H23
SMILES,GI50 (BT-549),GI50 (K562),GI50 (OVCAR-3),GI50 (MOLT-4),GI50 (A549),GI50 (SW-620),GI50 (MCF7),GI50 (UACC-257),GI50 (HCC 2998),GI50 (NCI-H522),GI50 (HCT-15),GI50 (OVCAR-8),GI50 (NCI-H460),GI50 (DU-145),GI50 (COLO 205),GI50 (OVCAR-4),GI50 (SF-539),GI50 (RPMI-8226),GI50 (SK-MEL-2),GI50 (NCI-H23)
CN(C)CCCNc1c(C#N)[n+]([O-])c2cc(Cl)ccc2[n+]1[O-],6.79 µM (inactive),3.92 µM (inactive),5.68 µM (inactive),1.18 µM (inactive),7.67 µM (inactive),9.14 µM (inactive),9.38 µM (inactive),17.7 µM (inactive),5.53 µM (inactive),3.1 µM (inactive),3.75 µM,11.7 µM (inactive),2.62 µM (inactive),21.2 µM (inactive),4.84 µM (inactive),4.75 µM (inactive),14.1 µM (inactive),3.27 µM (inactive),9.62 µM (inactive),7.74 µM (inactive)
COc1cc(/C=C2\CCC/C(=C\c3cc(OC)c(O)c(OC)c3)C2=O)cc(OC)c1O,1.53 µM (inactive),4.81 µM (inactive),1.07 µM (active),4.38 µM (inactive),1.67 µM (inactive),3.37 µM (inactive),3.12 µM (inactive),3.42 µM (inactive),1.35 µM (inactive),1.53 µM (inactive),1.52 µM,1.98 µM (inactive),2.22 µM (inactive),2.39 µM (inactive),9.38 µM (inactive),3.16 µM (inactive),2.16 µM (inactive),1.55 µM (inactive),2.4 µM (inactive),1.35 µM (inactive)
CCn1ncc2c(=O)n3ncn(-c4ccc(Br)cc4)c3nc21,> 100 µM (inactive),> 100 µM (inactive),> 100 µM (inactive),> 100 µM (inactive),> 100 µM (inactive),> 100 µM (inactive),> 100 µM (inactive),> 100 µM (inactive),> 100 µM (inactive),> 100 µM (inactive),> 100 µM,> 100 µM (inactive),–,> 100 µM (inactive),> 100 µM (inactive),> 100 µM (inactive),–,> 100 µM (inactive),> 100 µM (inactive),> 100 µM (inactive)
Cc1nc2c(sc3nc4ccccc4n32)c(=O)[nH]1,> 100 µM (inactive),–,> 100 µM (inactive),> 100 µM (inactive),> 100 µM (inactive),> 100 µM (inactive),> 100 µM (inactive),> 100 µM (inactive),> 100 µM (inactive),> 100 µM (inactive),> 100 µM,42.5 µM (inactive),–,> 100 µM (inactive),> 100 µM (inactive),> 100 µM (inactive),> 100 µM (inactive),> 100 µM (inactive),> 100 µM (inactive),> 100 µM (inactive)
COc1ccc(N2C(=O)CC(c3c[nH]c4ncccc34)C2=O)cc1 (stereo not drawn),17.5 µM (inactive),8.09 µM (inactive),20.7 µM (inactive),> 20.7 µM (inactive),> 100 µM (inactive),18.2 µM (inactive),27.5 µM (inactive),19.3 µM (inactive),> 100 µM (inactive),7.98 µM (inactive),24.8 µM,19.7 µM (inactive),> 100 µM (inactive),> 100 µM (inactive),18.8 µM (inactive),22.8 µM (inactive),> 47.2 µM (inactive),> 100 µM (inactive),36.1 µM (inactive),24.2 µM (inactive)
Cc1nc(O)nc(N/N=C/c2c3ccccc3c(Cl)c3ccccc23)c1C(=O)Nc1ccc(Cl)cc1,> 100 µM (inactive),68.5 µM (inactive),58.3 µM (inactive),31.3 µM (inactive),63.4 µM (inactive),52.6 µM (inactive),> 100 µM (inactive),> 100 µM (inactive),44.6 µM (inactive),> 100 µM (inactive),> 100 µM,68.9 µM (inactive),45.4 µM (inactive),> 100 µM (inactive),–,45.5 µM (inactive),–,> 100 µM (inactive),> 100 µM (inactive),> 100 µM (inactive)
Fc1cc2nc3n(c2cc1F)C(c1c(Cl)cccc1Cl)SC3 (stereo not drawn),21.8 µM (inactive),–,13 µM (inactive),24.4 µM (inactive),14.9 µM (inactive),18 µM (inactive),16.5 µM (inactive),13.6 µM (inactive),15.8 µM (inactive),16.9 µM (inactive),17.5 µM,16 µM (inactive),13.7 µM (inactive),17.5 µM (inactive),18.7 µM (inactive),15.9 µM (inactive),20.5 µM (inactive),11.9 µM (inactive),17.1 µM (inactive),16.6 µM (inactive)
